T/C data for 14 compounds are collected here from PubChem BioAssay AID330 (DTP/NCI, 2004).

Several values for one entry are separate records, joined by “and”; a condition that tells them apart may be missing. Identical values can stand only once. Inconclusive results and toxic doses are left out.

The test deals with P388 leukemia ip, CD2F1 mice, survival T/C. Kind of test: NCI In Vivo Anticancer Drug Screen. Data for tumor model P388 Leukemia (intraperitoneal) in CD2F1 (CDF1) mice. The note with it: endpoint: median survival time, higher = longer survival. The method in brief:
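Mice carrying the transplanted tumor received test compound or vehicle. Survival was recorded in each group, and the value is the treated-group measurement divided by that of the vehicle-treated control group.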

With `O=S1(=O)C=C(Cl)C2C3CC(C(Cl)C3Cl)C21` (stereo not given), the T/C is, setting by setting: (dose: 15.0 mg/kg/injection, schedule: Q04DX003 (ip), vehicle: saline) 100 % of control; (dose: 30.0 mg/kg/injection, schedule: Q04DX003 (ip), vehicle: saline) 91 % of control.
With `O=C1OCCCCCCOC(=O)c2ccccc2SSc2ccccc21`, the T/C runs as follows: (dose: 12.5 mg/kg/injection, schedule: Q01DX001 (ip), vehicle: saline with Tween-80) 101 % of control; (dose: 25.0 mg/kg/injection, schedule: Q01DX001 (ip), vehicle: saline with Tween-80) 94 % of control; (dose: 50.0 mg/kg/injection, schedule: Q01DX001 (ip), vehicle: saline with Tween-80) 94 % of control; (dose: 200.0 mg/kg/injection, schedule: Q01DX001 (ip), vehicle: saline with Tween-80) 88 % of control; (dose: 400.0 mg/kg/injection, schedule: Q01DX001 (ip), vehicle: saline with Tween-80) 90 % of control.
Regarding `O=C(C[n+]1cc2ccccc2cc1/C=N/O)c1ccccc1`, the T/C was 100 % of control (dose: 50.0 mg/kg/injection, schedule: Q01DX009 (ip), vehicle: saline sonified); 100 % of control (dose: 100.0 mg/kg/injection, schedule: Q01DX009 (ip), vehicle: saline sonified); 86 % of control (dose: 200.0 mg/kg/injection, schedule: Q01DX009 (ip), vehicle: saline sonified).
Take `O=[N+]([O-])c1ccc([Se]CCBr)c([N+](=O)[O-])c1`: the T/C was 101 % of control (dose: 100.0 mg/kg/injection, schedule: Q04DX003 (ip), vehicle: Klucel (hydroxypropylcellulose) (HPC)) and 101 % of control (dose: 200.0 mg/kg/injection, schedule: Q04DX003 (ip), vehicle: Klucel (hydroxypropylcellulose) (HPC)).
Regarding `c1cc2c(cc1CN1CCOCC1)CCc1cc(CN3CCOCC3)ccc1N2`, the T/C (dose: 15.0 mg/kg/injection, schedule: Q01DX005 (ip), vehicle: Klucel (hydroxypropylcellulose) (HPC)) was 101 % of control; the T/C (dose: 30.0 mg/kg/injection, schedule: Q01DX005 (ip), vehicle: Klucel (hydroxypropylcellulose) (HPC)) is 100 % of control; the T/C (dose: 60.0 mg/kg/injection, schedule: Q01DX005 (ip), vehicle: Klucel (hydroxypropylcellulose) (HPC)) is 94 % of control and 95 % of control.
In the case of `C1CC[N-]CC1.C1CC[N-]CC1.[Cl][Pt+2][Cl]`, the T/C (dose: 25.0 mg/kg/injection, schedule: Q01DX005 (ip), vehicle: Klucel (hydroxypropylcellulose) (HPC)) is 119 % of control and 120 % of control.
For the compound `CCc1c(-c2ccc(Cl)cc2)nc(N)nc1-c1nc(N)nc(-c2ccc(Cl)cc2)c1CC`, the T/C was 100 % of control (dose: 60.0 mg/kg/injection, schedule: Q01DX005 (ip), vehicle: saline) and 100 % of control (dose: 120.0 mg/kg/injection, schedule: Q01DX005 (ip), vehicle: saline).
Regarding `C1=C(C2=C[P+](c3ccccc3)(c3ccccc3)C=C(c3ccccc3)O2)OC(c2ccccc2)=C[P+]1(c1ccccc1)c1ccccc1`, the T/C was 103 % of control (dose: 12.5 mg/kg/injection, schedule: Q01DX005 (ip), vehicle: saline with Tween-80) and 100 % of control (dose: 25.0 mg/kg/injection, schedule: Q01DX005 (ip), vehicle: saline with Tween-80).
In the case of `CCCCn1c(C)nc2c(N)cc(C(F)(F)F)cc21`, the T/C is 100 % of control and 92 % of control (dose: 3.12 mg/kg/injection, schedule: Q01DX009 (ip), vehicle: Klucel (hydroxypropylcellulose) (HPC)); 105 % of control and 87 % of control (dose: 6.25 mg/kg/injection, schedule: Q01DX009 (ip), vehicle: Klucel (hydroxypropylcellulose) (HPC)); 121 % of control and 97 % of control (dose: 12.5 mg/kg/injection, schedule: Q01DX009 (ip), vehicle: Klucel (hydroxypropylcellulose) (HPC)); 111 % of control (dose: 25.0 mg/kg/injection, schedule: Q01DX001 (ip), vehicle: Klucel (hydroxypropylcellulose) (HPC)); 107 % of control and 89 % of control and 93 % of control (dose: 25.0 mg/kg/injection, schedule: Q01DX009 (ip), vehicle: Klucel (hydroxypropylcellulose) (HPC)); 115 % of control (dose: 50.0 mg/kg/injection, schedule: Q01DX001 (ip), vehicle: Klucel (hydroxypropylcellulose) (HPC)). Besides, the T/C was 101 % of control (dose: 50.0 mg/kg/injection, schedule: Q01DX009 (ip), vehicle: Klucel (hydroxypropylcellulose) (HPC)); 115 % of control (dose: 100.0 mg/kg/injection, schedule: Q01DX001 (ip), vehicle: Klucel (hydroxypropylcellulose) (HPC)); 105 % of control (dose: 100.0 mg/kg/injection, schedule: Q01DX009 (ip), vehicle: Klucel (hydroxypropylcellulose) (HPC)); 114 % of control (dose: 200.0 mg/kg/injection, schedule: Q01DX001 (ip), vehicle: Klucel (hydroxypropylcellulose) (HPC)); 118 % of control (dose: 400.0 mg/kg/injection, schedule: Q01DX001 (ip), vehicle: Klucel (hydroxypropylcellulose) (HPC)).
With `CC1CN=C(c2ccc(NC(=O)NCCCNC(=O)Nc3ccc(C4=NCC(C)N4)cc3)cc2)N1` (stereo not given), the T/C (dose: 50.0 mg/kg/injection, schedule: Q01DX005 (ip), vehicle: Klucel (hydroxypropylcellulose) (HPC)) was 153 % of control and 158 % of control.
Turning to `CC1(C)OC(=O)C(CCc2ccccn2)(CCc2ccccn2)C(=O)O1`, the T/C (dose: 12.5 mg/kg/injection, schedule: Q01DX009 (ip), vehicle: saline with Tween-80) is 113 % of control; the T/C (dose: 25.0 mg/kg/injection, schedule: Q01DX009 (ip), vehicle: saline with Tween-80) was 103 % of control; the T/C (dose: 50.0 mg/kg/injection, schedule: Q01DX009 (ip), vehicle: saline with Tween-80) was 110 % of control; the T/C (dose: 100.0 mg/kg/injection, schedule: Q01DX009 (ip), vehicle: saline with Tween-80) is 114 % of control; the T/C (dose: 200.0 mg/kg/injection, schedule: Q01DX009 (ip), vehicle: saline with Tween-80) is 104 % of control.
In the case of `C=CC1C(OC2OC(CO)C(O)C(O)C2O)OC=C(C(=O)OC)C1CC1CC(=O)CC(CCc2ccc(O)cc2)O1` (stereo not given), the T/C is 96 % of control (dose: 8.0 mg/kg/injection, schedule: Q01DX005 (ip), vehicle: distilled water + Tween-80); 99 % of control (dose: 16.0 mg/kg/injection, schedule: Q01DX005 (ip), vehicle: distilled water + Tween-80); 100 % of control (dose: 25.0 mg/kg/injection, schedule: Q01DX005 (ip), vehicle: water); 91 % of control (dose: 32.0 mg/kg/injection, schedule: Q01DX005 (ip), vehicle: distilled water + Tween-80); 99 % of control (dose: 50.0 mg/kg/injection, schedule: Q01DX005 (ip), vehicle: water); 90 % of control (dose: 64.0 mg/kg/injection, schedule: Q01DX005 (ip), vehicle: distilled water + Tween-80). The T/C (dose: 100.0 mg/kg/injection, schedule: Q01DX005 (ip), vehicle: water) is 96 % of control and the T/C (dose: 200.0 mg/kg/injection, schedule: Q01DX005 (ip), vehicle: water) was 99 % of control.
Consider `N#Cc1c(-c2ccc(F)cc2)c(-c2ccc(F)cc2)nn(CCO)c1=O`, for which the T/C was 98 % of control (dose: 12.5 mg/kg/injection, schedule: Q04DX002 (ip), vehicle: distilled water + Tween-80); 101 % of control and 108 % of control and 112 % of control (dose: 25.0 mg/kg/injection, schedule: Q04DX002 (ip), vehicle: distilled water + Tween-80); 117 % of control (dose: 50.0 mg/kg/injection, schedule: Q01DX005 (ip), vehicle: distilled water + Tween-80); 121 % of control and 166 % of control and 201 % of control (dose: 100.0 mg/kg/injection, schedule: Q04DX002 (ip), vehicle: distilled water + Tween-80); 155 % of control (dose: 200.0 mg/kg/injection, schedule: Q01DX005 (ip), vehicle: distilled water + Tween-80); 150 % of control (dose: 200.0 mg/kg/injection, schedule: Q04DX002 (ip), vehicle: distilled water + Tween-80). For the same compound, the T/C (dose: 400.0 mg/kg/injection, schedule: Q01DX005 (ip), vehicle: distilled water + Tween-80) is 238 % of control.
`N#C/C(=C\c1c[nH]c2ccccc12)C(N)=O`: the T/C (dose: 100.0 mg/kg/injection, schedule: Q04DX003 (ip), vehicle: saline with Tween-80) was 100 % of control; the T/C (dose: 200.0 mg/kg/injection, schedule: Q04DX003 (ip), vehicle: saline with Tween-80) is 100 % of control; the T/C (dose: 400.0 mg/kg/injection, schedule: Q04DX003 (ip), vehicle: saline with Tween-80) is 100 % of control.
